Experimental data: ChEMBL document CHEMBL4414618, “Structure-Activity Relationships of Fish Oil Derivatives with Antiallergic Activity in Vitro and in Vivo” (J Med Chem, 2019)

Key:
[1] = molecular target: T1, Fatty-acid amide hydrolase 1 (Homo sapiens, UniProt O00519); test: Inhibition of human FAAH expressed in baculovirus infected Sf9 cells using N-(6-methoxypyridin-3-yl)octanamide as substrate measured for 15 mins by fluorescence based assay
T1 sequence (O00519 whole entry): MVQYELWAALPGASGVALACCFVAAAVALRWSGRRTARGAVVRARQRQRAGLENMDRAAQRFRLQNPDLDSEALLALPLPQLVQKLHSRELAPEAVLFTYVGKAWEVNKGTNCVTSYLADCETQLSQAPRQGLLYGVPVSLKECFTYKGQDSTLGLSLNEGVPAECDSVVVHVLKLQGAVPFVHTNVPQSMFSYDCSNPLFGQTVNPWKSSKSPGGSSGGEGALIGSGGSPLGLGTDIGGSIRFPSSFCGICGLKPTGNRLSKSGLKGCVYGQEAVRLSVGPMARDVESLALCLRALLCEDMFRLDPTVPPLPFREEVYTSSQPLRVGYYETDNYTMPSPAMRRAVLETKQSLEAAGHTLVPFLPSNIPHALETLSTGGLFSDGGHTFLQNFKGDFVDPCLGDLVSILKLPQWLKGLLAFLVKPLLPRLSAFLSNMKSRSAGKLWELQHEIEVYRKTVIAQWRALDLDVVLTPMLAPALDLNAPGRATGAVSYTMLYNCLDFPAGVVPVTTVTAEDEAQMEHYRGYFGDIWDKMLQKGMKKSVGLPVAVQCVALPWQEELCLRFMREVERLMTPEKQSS

[2] = system: Mus musculus; test: Antiallergic activity in BALB/c mouse assessed as reduction in anti-DNP-IgE-mediated passive cutaneous anaphylaxis at 1000 mg/kg, po administered once daily for 5 days followed by anti-DNP-IgE stimulation on day 4 and subsequent DNP-HSA challenge on day 5 post 1 hr compound dose and measured after 30 mins by Evans blue dye-based spectrophotometric method relative to control; type: functional; design: scale not given: the % may be the effect or the level left
[3] = system: RBL-2H3; test: Antiallergic activity in rat RBL2H3 cells assessed as inhibition of DNP-HSA-mediated degranulation by measuring decrease in beta-hexosaminidase activity preincubated for 30 mins followed by DNP-HSA stimulation and measured after 30 mins by 4-nitrophenyl 2-acetamido-2-deoxy-beta-D-glucopyranoside substrate based assay; type: functional, cell-based
[4] = molecular target: T1, Fatty-acid amide hydrolase 1; test: Substrate activity at human FAAH expressed in baculovirus infected Sf9 cells assessed as docosahexaenoic acid formation incubated for 60 mins by HPLC analysis; type: ADME; conditions: sf9, 1 h

Row | Structure (SMILES) | IC50 [1] [µM] | Activity [2] [%] | IC50 [3] [µM] | Drug metabolism [4]
1 | CC/C=C\C/C=C\C/C=C\C/C=C\C/C=C\C/C=C\CCC(=O)NC(C)CO (stereo unspecified) | > 50 | 7 | 24 | Metabolite_Notdetected
2 | CC/C=C\C/C=C\C/C=C\C/C=C\C/C=C\C/C=C\CCC(=O)NCCCO | > 50 | 0 | 18 | Metabolite_Detected
3 | CC/C=C\C/C=C\C/C=C\C/C=C\C/C=C\C/C=C\CCC(=O)NS(C)(=O)=O | – | – | > 50 | –
4 | CC/C=C\C/C=C\C/C=C\C/C=C\C/C=C\C/C=C\CCC(=O)NS(=O)(=O)c1cccs1 | – | – | > 50 | –
5 | CC/C=C\C/C=C\C/C=C\C/C=C\C/C=C\C/C=C\CCC(=O)Nc1cccc(O)c1 | – | – | > 50 | –
6 | CCCCCCCC/C=C\CCCCCCCCCCCC(=O)NCCO | – | – | > 50 | –
7 | CCCCC/C=C\C/C=C\C/C=C\C/C=C\CCCC(=O)NCCO [ANANDAMIDE] | – | – | > 50 | –
8 | CCCCCCCC/C=C\CCCCCCCC(=O)O [OLEIC ACID] | – | – | > 50 | –
9 | CC/C=C\C/C=C\C/C=C\C/C=C\C/C=C\C/C=C\CCC(=O)NS(=O)(=O)c1ccc([N+](=O)[O-])cc1 | – | 49 | 15 | –
10 | CCCCC/C=C\C/C=C\CCCCCCCCCCCC(=O)O | – | – | > 50 | –
11 | CC/C=C\C/C=C\C/C=C\C/C=C\C/C=C\CCCC(=O)O [ICOSAPENT] | – | – | > 50 | –
12 | CC/C=C\C/C=C\C/C=C\C/C=C\C/C=C\C/C=C\CCC(=O)N(C)CCO | – | – | > 50 | –
13 | CC/C=C\C/C=C\C/C=C\C/C=C\C/C=C\C/C=C\CCC(=O)N1CCN(S(C)(=O)=O)CC1 | – | – | > 50 | –
14 | CC/C=C\C/C=C\C/C=C\C/C=C\C/C=C\C/C=C\CCC(=O)NCC(=O)O | 8.6 | 0 | 24 | Metabolite_Detected
15 | CC/C=C\C/C=C\C/C=C\C/C=C\C/C=C\C/C=C\CCC(=O)NCCC | – | – | > 50 | –
16 | CC/C=C\C/C=C\C/C=C\C/C=C\C/C=C\C/C=C\CCC(=O)NC1CCOCC1 | – | – | > 50 | –

Row | Structure (SMILES) | IC50 [1] [µM] | Activity [2] [%] | IC50 [3] [µM] | Drug metabolism [4]
17 | CC/C=C\C/C=C\C/C=C\C/C=C\C/C=C\C/C=C\CCC(=O)NS(=O)(=O)c1ccc(OC(F)(F)F)cc1 | – | 11 | 19 | –
18 | CC/C=C\C/C=C\C/C=C\C/C=C\C/C=C\C/C=C\CCC(=O)NS(=O)(=O)c1ccc(F)cc1 | – | 0 | 24 | –
19 | CC/C=C\C/C=C\C/C=C\C/C=C\C/C=C\C/C=C\CCC(=O)NC(CO)CO | > 50 | 17 | 16 | Metabolite_Notdetected
20 | CC/C=C\C/C=C\C/C=C\C/C=C\C/C=C\C/C=C\CCC(=O)NCCOCCO | > 50 | 11 | 18 | Metabolite_Detected
21 | CC/C=C\C/C=C\C/C=C\C/C=C\C/C=C\C/C=C\CCC(=O)NCC(O)CO (stereo unspecified) | > 50 | 23 | 17 | Metabolite_Detected
22 | CC/C=C\C/C=C\C/C=C\C/C=C\C/C=C\C/C=C\CCC(=O)OCCO | – | – | > 50 | –
23 | CC/C=C\C/C=C\C/C=C\C/C=C\C/C=C\C/C=C\CCC(=O)NS(=O)(=O)c1ccc(O)cc1 | – | – | > 50 | –
24 | CC/C=C\C/C=C\C/C=C\C/C=C\C/C=C\C/C=C\CCC(=O)NS(=O)(=O)c1ccc(C(F)(F)F)cc1 | – | 19 | 15 | –
25 | CC/C=C\C/C=C\C/C=C\C/C=C\C/C=C\C/C=C\CCC(=O)N(C)CCOC | – | – | > 50 | –
26 | CC/C=C\C/C=C\C/C=C\C/C=C\C/C=C\C/C=C\CCC(=O)NS(=O)(=O)C(C)(C)C | > 50 | 0 | 17 | Metabolite_Notdetected
27 | CC/C=C\C/C=C\C/C=C\C/C=C\C/C=C\C/C=C\CCC(=O)N1CCN(C)CC1 | – | – | > 50 | –
28 | CCCCCCCC/C=C\CCCCCCCCCCCC(=O)O [ERUCIC ACID] | – | – | > 50 | –
29 | CCCCC/C=C\C/C=C\CCCCCCCC(=O)O [LINOLEIC ACID] | – | – | > 50 | –
30 | CC/C=C\C/C=C\C/C=C\C/C=C\C/C=C\C/C=C\CCC(=O)Nc1ccccc1O | – | – | > 50 | –
31 | CC/C=C\C/C=C\C/C=C\C/C=C\C/C=C\C/C=C\CCC(=O)NS(=O)(=O)C(F)(F)F | – | – | 47 | –
